From US20190276872A1, “DETERMINATION OF INTERFERENTS IN A SAMPLE” (Roche Diagnostics Operations, Inc., priority 2016, published 2019)

Columns and labels:
Normal plasma pool [1] = test: Thrombin time assay (Roche Thrombin Time Reagent on Roche cobas t 711), spiked normal plasma pool; settings: for effect of spiked amount on clotting time of thrombin time (TT) assay: increasing concentrations, normal plasma sample; for TT result: normal plasma pool
Normal plasma pool [2] = test: APTT assay (Roche APTT LS on Roche cobas t 711 coagulation analyzer), spiked normal plasma pool; settings: for effect of spiked amount on clotting time of APTT assay: increasing concentrations, normal plasma sample; for APTT result: normal plasma pool
pathological plasma pool = test: Thrombin time assay (Roche Thrombin Time Reagent on Roche cobas t 711), spiked pathological plasma pool; settings: for TT result: pathological plasma pool
Description: [The source words this procedure for another target and reports this target under the same test.] A TT result of 19 s would result in a conjugated bilirubin concentration x=4.95 mg/dL. The calibration curve shown above was generated by spiking increasing amount of bilic to a normal plasma sample.

Molecule: conjugated bilirubin
- effect of spiked amount on clotting time of thrombin time (TT) assay (Normal plasma pool [1]): systematically prolonged
- TT result (Normal plasma pool [1]; spiked at 1.00 mg/dL): 16.70 s
- TT result (Normal plasma pool [1]; spiked at 2.00 mg/dL): 17.40 s
- TT result (Normal plasma pool [1]; spiked at 3.00 mg/dL): 17.80 s
- TT result (Normal plasma pool [1]; spiked at 4.00 mg/dL): 18.50 s
- TT result (Normal plasma pool [1]; spiked at 5.00 mg/dL): 19.20 s
- TT result (Normal plasma pool [1]; spiked at 6.00 mg/dL): 19.50 s
- TT result (Normal plasma pool [1]; spiked at 7.00 mg/dL): 20.00 s
- TT result (Normal plasma pool [1]; spiked at 8.00 mg/dL): 20.50 s
- TT result (Normal plasma pool [1]; spiked at 9.00 mg/dL): 21.30 s
- TT result (Normal plasma pool [1]; spiked at 10.00 mg/dL): 21.70 s
- effect of spiked amount on clotting time of APTT assay (Normal plasma pool [2]): systematically prolonged
- APTT result (Normal plasma pool [2]; spiked at 2.00 mg/dL): 27.90 s
- APTT result (Normal plasma pool [2]; spiked at 4.00 mg/dL): 28.40 s
- APTT result (Normal plasma pool [2]; spiked at 6.00 mg/dL): 29.00 s
- APTT result (Normal plasma pool [2]; spiked at 8.00 mg/dL): 29.70 s
- APTT result (Normal plasma pool [2]; spiked at 9.00 mg/dL): 30.00 s
- APTT result (Normal plasma pool [2]; spiked at 10.00 mg/dL): 30.50 s
- APTT result (Normal plasma pool [2]; spiked at 11.00 mg/dL): 30.70 s
- APTT result (Normal plasma pool [2]; spiked at 12.00 mg/dL): 31.10 s
- APTT result (Normal plasma pool [2]; spiked at 13.00 mg/dL): 31.50 s
- APTT result (Normal plasma pool [2]; spiked at 15.00 mg/dL): 32.20 s

Molecule: C=CC1=C(C)/C(=C/c2[nH]c(Cc3[nH]c(/C=C4\NC(=O)C(C)=C4C=C)c(C)c3CCC(=O)O)c(CCC(=O)O)c2C)NC1=O [unconjugated bilirubin]
- effect of spiked amount on clotting time of thrombin time (TT) assay (Normal plasma pool [1]): does not seem to influence thrombin time results
- TT result (Normal plasma pool [1]; spiked at 6.60 mg/dL): 16.30 s
- TT result (Normal plasma pool [1]; spiked at 13.20 mg/dL): 16.30 s
- TT result (Normal plasma pool [1]; spiked at 19.80 mg/dL): 16.00 s
- TT result (Normal plasma pool [1]; spiked at 26.40 mg/dL): 16.40 s
- TT result (Normal plasma pool [1]; spiked at 33.00 mg/dL): 16.40 s
- TT result (Normal plasma pool [1]; spiked at 39.60 mg/dL): 16.40 s
- TT result (Normal plasma pool [1]; spiked at 46.20 mg/dL): 16.40 s
- TT result (Normal plasma pool [1]; spiked at 52.80 mg/dL): 16.60 s
- TT result (Normal plasma pool [1]; spiked at 59.40 mg/dL): 16.50 s
- TT result (Normal plasma pool [1]; spiked at 66.00 mg/dL): 16.60 s
- effect of spiked amount on clotting time of APTT assay (Normal plasma pool [2]): influences APTT results only marginally
- APTT result (Normal plasma pool [2]; spiked at 6.60 mg/dL): 30.70 s
- APTT result (Normal plasma pool [2]; spiked at 13.20 mg/dL): 31.10 s
- APTT result (Normal plasma pool [2]; spiked at 19.80 mg/dL): 30.80 s
- APTT result (Normal plasma pool [2]; spiked at 26.40 mg/dL): 30.80 s
- APTT result (Normal plasma pool [2]; spiked at 33.00 mg/dL): 30.70 s
- APTT result (Normal plasma pool [2]; spiked at 39.60 mg/dL): 30.50 s
- APTT result (Normal plasma pool [2]; spiked at 46.20 mg/dL): 30.50 s
- APTT result (Normal plasma pool [2]; spiked at 52.80 mg/dL): 30.30 s
- APTT result (Normal plasma pool [2]; spiked at 59.40 mg/dL): 30.60 s
- APTT result (Normal plasma pool [2]; spiked at 66.00 mg/dL): 30.30 s

Molecule: hemoglobin
- effect of spiked amount on clotting time of APTT assay (Normal plasma pool [2]): systematically shortened
- APTT result (Normal plasma pool [2]; spiked at 130.00 mg/dL): 28.40 s
- APTT result (Normal plasma pool [2]; spiked at 260.00 mg/dL): 28.10 s
- APTT result (Normal plasma pool [2]; spiked at 390.00 mg/dL): 27.90 s
- APTT result (Normal plasma pool [2]; spiked at 520.00 mg/dL): 27.60 s
- APTT result (Normal plasma pool [2]; spiked at 650.00 mg/dL): 27.40 s
- APTT result (Normal plasma pool [2]; spiked at 780.00 mg/dL): 27.20 s
- APTT result (Normal plasma pool [2]; spiked at 910.00 mg/dL): 26.70 s
- APTT result (Normal plasma pool [2]; spiked at 1040.00 mg/dL): 26.30 s
- APTT result (Normal plasma pool [2]; spiked at 1170.00 mg/dL): 26.20 s
- APTT result (Normal plasma pool [2]; spiked at 1300.00 mg/dL): 25.70 s
- effect of spiked amount on clotting time of thrombin time (TT) assay (pathological plasma pool; increasing concentrations, pathological plasma sample): systematically shortened
- TT result (pathological plasma pool; spiked at 130.00 mg/dL): 38.50 s
- TT result (pathological plasma pool; spiked at 260.00 mg/dL): 38.10 s
- TT result (pathological plasma pool; spiked at 390.00 mg/dL): 37.60 s
- TT result (pathological plasma pool; spiked at 520.00 mg/dL): 36.70 s
- TT result (pathological plasma pool; spiked at 650.00 mg/dL): 36.30 s
- TT result (pathological plasma pool; spiked at 780.00 mg/dL): 35.70 s
- TT result (pathological plasma pool; spiked at 910.00 mg/dL): 35.00 s
- TT result (pathological plasma pool; spiked at 1040.00 mg/dL): 34.40 s
- TT result (pathological plasma pool; spiked at 1170.00 mg/dL): 33.60 s
- TT result (pathological plasma pool; spiked at 1300.00 mg/dL): 33.40 s
